Source: publication PMC10216478, “Development of a Non-Peptide Angiotensin II Type 1 Receptor Ligand by Structural Modification of Olmesartan as a Biased Agonist” (Biomedicines, 2023)
Numbering of substitutions follows the chain as printed.

Tests used:
AT1 Q257A receptor = target: T1, AT1 Q257A receptor (Rattus norvegicus, UniProt P25095, Q257A); assay: Competition binding study, 125I-[Sar1,Ile8]Ang II, AT1 Q257A receptor; conditions: competition with 125I-[Sar1,Ile8]Ang II, n = 3, mean ± standard error, read-out: Binding affinity (Kd)
T1 construct: expressed in transfected cells; host or cells: COS7
T1 sequence (P25095 1-359 Q257A): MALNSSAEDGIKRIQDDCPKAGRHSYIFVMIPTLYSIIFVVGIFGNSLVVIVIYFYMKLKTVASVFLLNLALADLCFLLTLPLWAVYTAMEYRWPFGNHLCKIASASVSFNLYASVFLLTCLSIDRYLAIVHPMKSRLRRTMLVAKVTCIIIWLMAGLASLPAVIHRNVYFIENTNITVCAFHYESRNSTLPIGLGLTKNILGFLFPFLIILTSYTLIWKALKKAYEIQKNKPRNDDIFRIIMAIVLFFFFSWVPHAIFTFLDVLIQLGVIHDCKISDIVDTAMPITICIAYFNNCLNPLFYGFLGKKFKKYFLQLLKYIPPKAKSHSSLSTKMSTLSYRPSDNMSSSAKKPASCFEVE
From the text: (§1) We mutated four amino acids in transmembrane (TM) III, VI, and VII in the AT1 receptor (L112A, Q257A, Y292A, and N295A receptors). We determined the mutation sites of the AT1 receptor according to ARB, which produced olmesartan derivatives with different interactions and functions toward the AT1 receptor, as previously reported by Zhang et al., since the additional 4-hydroxybenzyl groups of R781253 and R794847 were predicted to extend to a sub-pocket on the bottom of the AT1 receptor ligand-binding pocket consisting of Leu^112 and Gln^257. In addition, since the biased ligand TRV027 induced changes near the NPxxY motif in TM domain 7 that are related to receptor activation, Tyr^292 and Asn^295 in the AT1 receptor were mutated.
(§2) The synthetic rat AT1 receptor gene, which was cloned in the shuttle expression vector pMT-2, was used for expression and mutagenesis, as described previously. COS7 cells (No. CRL-1651, ATCC, Manassas, VA, USA) were cultured in 10% fetal bovine serum (FBS) and penicillin- and streptomycin-supplemented Dulbecco’s modified Eagle’s essential medium (PS-DMEM) in 5% CO2 at 37 °C. In the experiments, cells were grown without a cell-growth supplement. To express the AT1 receptor protein, 10 µg of purified plasmid DNA per 10^7 cells was used in the transfection. Wild-type and mutated AT1 receptors were transiently transfected into cells using Lipofectamine 2000 liposomal reagent (Roche Applied Science, Penzberg, Germany). Cells were plated and grown and were 70–90% confluent at the time of transfection. We incubated plasmid DNA (10 µg)–lipid (10 µL) complexes for 5 min at room temperature and added and incubated the complexes with cells for 24 h. We then analyzed the parameters in transfected cells. Cell viability was >95% according to trypan blue exclusion analysis in the control experiments. Transfected cells that had been cultured for 48–72 h were harvested. Cell membranes were prepared using the nitrogen Parr bomb disruption or freeze–thaw methods.
(§3) The Kd (nM) values of receptor binding were determined with ^125I-[Sar^1, Ile^8]AngII-binding experiments under equilibrium conditions. Binding kinetics were determined following the methods described in the literature. We carried out binding by using ^125I-[Sar^1, Ile^8] AngII (2200 Ci/mmol) and an increasing concentration (10^−11–10^−5 M) of each unlabeled compound. Nonspecific binding of ^125I-[Sar^1, Ile^8] Ang II was determined in the presence of a high concentration (10^−6 M) of unlabeled [Sar^1, Ile^8]. Next, the incubation mixture was separated by vacuum filtration through Whatman GF/C glass filters (Disposable Filter Funnels Grade GF/C, GE Healthcare), and presoaked with 0.1% polyethylenimine. The filter was washed with 3 mL of ice-cold stop buffer (25 mM Tris–HCl, pH 7.4, 1 mM MgCl2). The radioactivity trapped on the filters was quantified using an automatic γ-counter. The percentage (%) of specific binding of ^125I-[Sar^1, Ile^8]Ang II was calculated using the following formula: 100 × (% total binding of ^125I-[Sar^1, Ile^8]Ang II—nonspecific binding of ^125I-[Sar^1, Ile^8]Ang II)/(% total binding of ^125I-[Sar^1, Ile^8]Ang II).

AT1 Y292A receptor = target: T2, AT1 Y292A receptor (Rattus norvegicus, UniProt P25095, Y292A); assay: Competition binding study, 125I-[Sar1,Ile8]Ang II, AT1 Y292A receptor; conditions: competition with 125I-[Sar1,Ile8]Ang II, n = 3, mean ± standard error, read-out: Binding affinity (Kd)
T2 construct: expressed in transfected cells; host or cells: COS7
T2 sequence (P25095 1-359 Y292A): T1 sequence (P25095 1-359 Q257A) with A257Q, Y292A
From the text: as §1, §2, §3

Kd (AT1 Q257A receptor) [nM]	Kd (AT1 Y292A receptor) [nM]	Structure (SMILES)
14 ± 6	95 ± 7	CCCc1nc(C(C)(C)O)c(C(=O)O)n1Cc1ccc(-c2cc(Cc3ccc(O)cc3)ccc2-c2nnn[nH]2)cc1 [R781253]
2.7 ± 0.8	30 ± 8	CCCc1nc(C(C)(C)O)c(C(N)=O)n1Cc1ccc(-c2cc(Cc3ccc(O)cc3)ccc2-c2nnn[nH]2)cc1 [R794847]
20 ± 2	6.3 ± 3.8	CCCc1nc(C(C)(C)O)c(C(N)=O)n1Cc1ccc(-c2ccccc2-c2nnn[nH]2)cc1 [R239470]
228 ± 38	47 ± 15	CCCc1nc(C(C)(C)O)c(C(=O)O)n1Cc1ccc(-c2ccccc2-c2nnn[nH]2)cc1 [Olmesartan, olmesartan]
